In ChEMBL document CHEMBL3580659, “One-pot multicomponent synthesis of indole incorporated thiazolylcoumarins and their antibacterial, anticancer and DNA cleavage studies” (2015):

Experiments:
Assay type in all cases: functional
[1] = tested on: ACHN; assay: Cytotoxicity against human ACHN cells assessed as cell growth level at 10 uM after 48 hrs by sulforhodamine B assay
[2] = tested on: HOP-92; assay: Cytotoxicity against human HOP92 cells assessed as cell growth level at 1 uM after 48 hrs by sulforhodamine B assay
[3] = tested on: PC-3; assay: Cytotoxicity against human PC3 cells after 48 hrs by sulforhodamine B assay; settings: PC-3, 48 h
[4] = tested on: Malme-3M; assay: Cytotoxicity against human MALME-3M cells assessed as cell growth level at 100 uM after 48 hrs by sulforhodamine B assay
[5] = tested on: SK-MEL-2; assay: Cytotoxicity against human SK-MEL-2 cells after 48 hrs by sulforhodamine B assay; settings: SK-MEL-2, 48 h
[6] = tested on: HOP-92; assay: Cytotoxicity against human HOP92 cells assessed as cell growth level at 10 nM after 48 hrs by sulforhodamine B assay
[7] = tested on: T47D; assay: Cytotoxicity against human T47D cells assessed as cell growth level at 100 uM after 48 hrs by sulforhodamine B assay
[8] = tested on: HCT-15; assay: Cytotoxicity against human HCT15 cells assessed as cell growth level at 10 nM after 48 hrs by sulforhodamine B assay
[9] = tested on: SNB-19; assay: Cytotoxicity against human SNB19 cells after 48 hrs by sulforhodamine B assay; settings: SNB-19, 48 h
[10] = tested on: UACC-257; assay: Cytotoxicity against human UACC257 cells assessed as cell growth level at 100 nM after 48 hrs by sulforhodamine B assay
[11] = tested on: COLO 205; assay: Cytotoxicity against human COLO205 cells after 48 hrs by sulforhodamine B assay; settings: COLO 205, 48 h
[12] = tested on: SK-MEL-2; assay: Cytotoxicity against human SK-MEL-2 cells assessed as cell growth level at 100 uM after 48 hrs by sulforhodamine B assay
[13] = tested on: HL-60(TB); assay: Cytotoxicity against human HL-60(TB) cells after 48 hrs by sulforhodamine B assay; settings: HL-60, 48 h
[14] = tested on: OVCAR-5; assay: Cytotoxicity against human OVCAR5 cells assessed as cell growth level at 1 uM after 48 hrs by sulforhodamine B assay
[15] = tested on: SNB-75; assay: Cytotoxicity against human SNB75 cells assessed as cell growth level at 100 uM after 48 hrs by sulforhodamine B assay
[16] = tested on: CCRF-CEM; assay: Cytotoxicity against human CCRF-CEM cells after 48 hrs by sulforhodamine B assay
[17] = tested on: ACHN; assay: Cytotoxicity against human ACHN cells after 48 hrs by sulforhodamine B assay
[18] = tested on: NCI-H322M; assay: Cytotoxicity against human NCI-H322M cells assessed as cell growth level at 1 uM after 48 hrs by sulforhodamine B assay
[19] = tested on: RXF 393; assay: Cytotoxicity against human RXF393 cells assessed as cell growth level at 1 uM after 48 hrs by sulforhodamine B assay
[20] = tested on: ACHN; assay: Cytotoxicity against human ACHN cells assessed as cell growth level at 100 uM after 48 hrs by sulforhodamine B assay
[21] = tested on: HCT-15; assay: Cytotoxicity against human HCT15 cells assessed as cell growth level at 100 uM after 48 hrs by sulforhodamine B assay
[22] = tested on: M14; assay: Cytotoxicity against human M14 cells assessed as cell growth level at 100 nM after 48 hrs by sulforhodamine B assay
[23] = tested on: SK-MEL-2; assay: Cytotoxicity against human SK-MEL-2 cells assessed as cell growth level at 10 uM after 48 hrs by sulforhodamine B assay
[24] = tested on: BT-549; assay: Cytotoxicity against human BT549 cells assessed as cell growth level at 100 nM after 48 hrs by sulforhodamine B assay
[25] = tested on: OVCAR-4; assay: Cytotoxicity against human OVCAR4 cells assessed as cell growth level at 100 uM after 48 hrs by sulforhodamine B assay
[26] = tested on: MDA-MB-231; assay: Cytotoxicity against human MDA-MB-231/ATCC cells assessed as cell growth level at 10 nM after 48 hrs by sulforhodamine B assay
[27] = tested on: Malme-3M; assay: Cytotoxicity against human MALME-3M cells assessed as cell growth level at 1 uM after 48 hrs by sulforhodamine B assay
[28] = tested on: NCI-H322M; assay: Cytotoxicity against human NCI-H322M cells assessed as cell growth level at 10 nM after 48 hrs by sulforhodamine B assay
[29] = tested on: SR; assay: Cytotoxicity against human SR cells assessed as cell growth level at 100 nM after 48 hrs by sulforhodamine B assay
[30] = tested on: SR; assay: Cytotoxicity against human SR cells assessed as cell growth level at 1 uM after 48 hrs by sulforhodamine B assay
[31] = tested on: MDA-MB-435; assay: Cytotoxicity against human MDA-MB-435 cells assessed as cell growth level at 1 uM after 48 hrs by sulforhodamine B assay
[32] = tested on: MDA-MB-468; assay: Cytotoxicity against human MDA-MB-468 cells assessed as cell growth level at 100 uM after 48 hrs by sulforhodamine B assay
[33] = tested on: HCT-116; assay: Cytotoxicity against human HCT116 cells assessed as cell growth level at 1 uM after 48 hrs by sulforhodamine B assay
[34] = tested on: DU-145; assay: Cytotoxicity against human DU145 cells assessed as cell growth level at 100 uM after 48 hrs by sulforhodamine B assay
[35] = tested on: OVCAR-5; assay: Cytotoxicity against human OVCAR5 cells assessed as cell growth level at 100 nM after 48 hrs by sulforhodamine B assay
[36] = Cytotoxicity against human NCI-ADR-RES cells assessed as cell growth level at 100 uM after 48 hrs by sulforhodamine B assay
[37] = tested on: 786-0; assay: Cytotoxicity against human 786-0 cells after 48 hrs by sulforhodamine B assay; settings: 786-0, 48 h
[38] = read-out: LC50 (the source's name)
[39] = read-out: pLC50 (the source's name) (converted)

O=c1oc2ccccc2cc1-c1csc(N/N=C/c2c[nH]c3ccccc23)n1
Activity [1]: 10.07%
Activity [2]: 87%
GI50 ([3]; read-out: GI50): 828 nM
CC50 [3, 38]: 7.63 µM
TGI ([3]; read-out: TGI): 2660 nM
GI50 ([3]; read-out: pGI50 (converted)): 832 nM
CC50 [3, 39]: 7.59 µM
TGI ([3]; read-out: pTGI (converted)): 2630 nM
Activity [4]: -67%
GI50 ([5]; read-out: GI50): 1610 nM
CC50 [5, 38]: 8.17 µM
TGI ([5]; read-out: TGI): 3.62 µM
GI50 ([5]; read-out: pGI50 (converted)): 1620 nM
CC50 [5, 39]: 8.13 µM
TGI ([5]; read-out: pTGI (converted)): 3.63 µM
Activity [6]: 100%
Activity [7]: -35%
Activity [8]: 95%
GI50 ([9]; read-out: GI50): 3.39 µM
CC50 [9, 38]: > 100 µM
TGI ([9]; read-out: TGI): 62.1 µM
GI50 ([9]; read-out: pGI50 (converted)): 3.39 µM
CC50 [9, 39]: > 100 µM
TGI ([9]; read-out: pTGI (converted)): 61.7 µM
Activity [10]: 88%
GI50 ([11]; read-out: GI50): 1920 nM
LC50 (concentration killing 50% of cells) ([11]; read-out: LC50): 6.55 µM
TGI ([11]; read-out: TGI): 3.55 µM
GI50 ([11]; read-out: pGI50 (converted)): 1910 nM
LC50 (concentration killing 50% of cells) ([11]; read-out: pLC50 (converted)): 6.61 µM
TGI ([11]; read-out: pTGI (converted)): 3.55 µM
Activity [12]: -93%
GI50 ([13]; read-out: GI50): 450 nM
CC50 [13, 38]: > 100 µM
TGI ([13]; read-out: TGI): 7.64 µM
GI50 ([13]; read-out: pGI50 (converted)): 457 nM
CC50 [13, 39]: > 100 µM
TGI ([13]; read-out: pTGI (converted)): 7.59 µM
Activity [14]: 87%
Activity [15]: -53%
GI50 ([16]; read-out: GI50): 330 nM
LC50 ([16]; read-out: LC50): > 100 µM
TGI ([16]; read-out: TGI): 1780 nM
GI50 ([16]; read-out: pGI50 (converted)): 339 nM
LC50 ([16]; read-out: pLC50 (converted)): > 100 µM
TGI ([16]; read-out: pTGI (converted)): 1780 nM
GI50 ([17]; read-out: GI50): 1310 nM
CC50 [17, 38]: 70.8 µM
TGI ([17]; read-out: TGI): 4.36 µM
GI50 ([17]; read-out: pGI50 (converted)): 1320 nM
CC50 [17, 39]: 70.8 µM
TGI ([17]; read-out: pTGI (converted)): 4.37 µM
Activity [18]: 92%
Activity [19]: 53%
Activity [20]: -45%
Activity [21]: -48%
Activity [22]: 92%
Activity [23]: -9.49%
Activity [24]: 88%
Activity [25]: -24%
Activity [26]: 97%
Activity [27]: 93%
Activity [28]: 103%
Activity [29]: 102%
Activity [30]: 81%
Activity [31]: 79%
Activity [32]: -39%
Activity [33]: 81%
Activity [34]: -2%
Activity [35]: 99%
Activity [36]: 8%
GI50 ([37]; read-out: GI50): 1350 nM
CC50 [37, 38]: > 100 µM
TGI ([37]; read-out: TGI): 4.09 µM
GI50 ([37]; read-out: pGI50 (converted)): 1350 nM
CC50 [37, 39]: > 100 µM
TGI ([37]; read-out: pTGI (converted)): 4.07 µM
